Common to all, as to test: NCI-60 cell line screen, 48 h
Test [1] has as its system SNB-75 CNS.
The test system of test [2] is OVCAR-5 ovarian.
Test [3] relates to SF-268 CNS.
For test [4], the system named is NCI-H460 lung.
The test system of test [5] is SF-295 CNS.
In test [6] the test system is SK-MEL-5 melanoma.
Test [7] has as its system SN12C renal.
Test [8] relates to A498 renal.
Test [9] has as its system NCI/ADR-RES ovarian.
The test system of test [10] is BT-549 breast.

Structures are written as SMILES.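 Step 1: Grow cells in 96-well plates. Step 2: Expose to compound for 48 hours at 5 concentrations. Step 3: Interpolate endpoints linearly; if unreached, use highest concentration. GI50 marks 50% less growth. TGI denotes the concentration required for complete inhibition of growth.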 A value given as a limit tells only on which side of the number the result lay.

With `C[C@]12CCC(=O)C=C1CC[C@@H]1C2CC[C@@]2(C)C1CC[C@@H]2OC(=O)C12OC1CCC2=O` (some centres not stated), the TGI in [1] came to 33.9 µM; in [2], 33.9 µM; in test [3] it was 41.2 µM; in [4] it was 31.8 µM; in test [5], 34.7 µM; in test [6], 29.7 µM. In addition, the TGI is 55.5 µM in test [7] and 35.6 µM in [8].

Take `COc1c(C)c(C/C=C(\C)CCCCO)c(OC)c2ccccc12`: the TGI was > 100 µM in test [1]; > 100 µM in [2]; > 100 µM in [3]; 37.8 µM in [4]; > 100 µM in test [5]; 39.5 µM in [6]. Moreover, the TGI in test [9] was > 100 µM; in test [7] it was 52.9 µM; in test [10], > 100 µM.

As for `O=c1[nH]c(-c2ccc(Cl)cc2)cc2ccsc12`, the TGI was 23.2 µM in test [1]; > 100 µM in test [2]; > 100 µM in test [3]; > 100 µM in [4]; 23.4 µM in test [5]; > 100 µM in test [6]. Moreover, the TGI in test [9], in test [7] and in [10] was > 100 µM in each case.

For the compound `COC(=O)CC1NC(=O)C1C(C)(OC)OC` (configuration not stated), the TGI in [1], in test [3], in test [4], in test [5], in test [6] and in test [7] was > 100 µM throughout. In addition, the TGI in test [8] is > 100 µM.

`COC(=O)C1Cc2c([nH]c3ccccc23)-c2[nH]c3ccccc3c2CC(NC(C)=O)C(=O)N2CCCC2C(=O)N1` (configuration not stated): the TGI in test [1], in test [2], in [3], in test [4], in test [5] and in [6] was > 100 µM each time. The TGI in test [9] and in test [7] was > 100 µM in each case.

Regarding `O=C1[C@H](O)[C@@H]2CCC[C@@]23CCCN13`, the TGI in test [1], in test [2], in test [3], in test [4], in [5] and in [6] was > 100 µM each time. For the same compound, the TGI in [9], in test [7] and in test [8] was > 100 µM throughout.

As for `COc1cc(O)c2c(=O)c(OC)c(-c3ccc(OC)c(OC)c3)oc2c1.[Sn]`, the TGI in test [1], in [2], in test [3], in [4], in test [5] and in [6] was > 100 µM throughout. The TGI in [9], in test [7] and in test [10] was > 100 µM in each case. Further, the GI50 was > 100 µM in [2]; > 100 µM in [3]; 17.4 µM in [5]; 32.9 µM in [6]; > 100 µM in [9].

Consider `CCSc1[nH]c(NC(=NC(C)C)NC(=O)c2ccccc2)c(C(N)=O)c1C(N)=O`, for which the TGI in test [1], in test [3], in [5], in test [6] and in test [7] was > 10 µM in each case.

For `Brc1ccc(C[N+]23CN4CN(CN(C4)C2)C3)cc1`, the TGI in [1] is > 100 µM; in test [3] it was > 100 µM; in test [4] it was > 100 µM; in [5], > 100 µM; in [7], 62.4 µM.

As for `Cc1cc2c(cc1-c1cc3c(cc1C)C(C(C)C)=C(O)C(=O)/C3=C\Nc1ccccn1)/C(=C/Nc1ccccn1)C(=O)C(O)=C2C(C)C`, the TGI in test [1], in test [2], in test [3], in [4], in [5] and in test [6] was > 100 µM throughout. Moreover, the TGI in test [9], in test [7] and in test [8] was > 100 µM throughout.

Take `CN(C)CCNC(=O)c1cccc2[nH]c(-c3ccc(Cl)cc3)nc12`: the TGI in test [1] came out at 15.3 µM; in [2], 26.4 µM; in test [3], 38.4 µM; in test [4], 13.2 µM; in test [5], 21.3 µM; in [6], 16.7 µM. Moreover, the figures for the TGI in test [9], in test [7] and in test [8] were 21 µM, 19.4 µM and 24 µM, respectively.

For `COc1ccc(C=NCCCN=Cc2ccc(OC)cc2O)c(O)c1`, the TGI in test [1] was 64.8 µM; in test [2] it was > 100 µM; in test [4], > 100 µM; in test [5], 54.5 µM; in [7] it was 90.6 µM; in test [10] it was > 100 µM. In addition, the TGI in test [8] was > 100 µM.

In the case of `CC(=O)N1CCN(CCCCN2c3ccccc3Sc3cc(N=[N+]=[N-])ccc32)CC1`, the TGI in [1] came out at 26.2 µM; in [2] it was 26.6 µM; in test [3], 39.1 µM; in [4], 28.1 µM; in test [5], 31.5 µM; in [9] it was 27.4 µM. For the same compound, the values for the TGI in test [7] and in [10] were 31.4 µM and 31.6 µM, respectively.

As to `Cc1ccc(S(=O)(=O)NCCCSCCO)cc1`, the TGI in test [1], in [3], in [4], in test [5], in [6] and in test [9] was > 100 µM each time. Also, the TGI in [7] and in [8] was > 100 µM in each case.

Take `CC(C)(/C=N/O)/[N+]([O-])=C/c1ccccc1`: the TGI in [1], in [2], in test [3], in test [4], in test [5] and in [6] was > 100 µM each time. Further, the TGI in test [9] and in [7] was > 100 µM throughout.

`Cc1cc(=O)[nH]c(NNC(C#N)c2ccc(N(C)C)cc2)n1` (configuration not stated): the TGI in test [1], in test [2], in test [3], in test [4], in [5] and in test [6] was > 100 µM throughout. In [7], the TGI was > 100 µM.

For `O=C1CCc2ccccc2O1`, the TGI in test [1], in [2], in test [3], in test [4], in [5] and in test [9] was > 100 µM throughout. Besides, the TGI in [7] and in test [8] was > 100 µM each time.

On to `O=C1NC2OC(CO)C(O)C(O)C2O1` (configuration not stated), for which the TGI in test [1], in test [2], in test [3], in [4], in [5] and in [6] was > 100 µM in each case. Also, the TGI in [7] and in [8] was > 100 µM each time.

As to `c1ccc(Sc2nc(Sc3ccccc3)nc(Sc3ccccc3)n2)cc1`, the TGI in [2], in [3], in [4], in test [5], in test [6] and in test [7] was > 100 µM throughout. The values for the TGI in test [10] and in test [8] were > 100 µM and 86.8 µM, respectively.

Turning to `CC1(C)OC2[C@@H](CO[C@@]3([C@H]4OC(C)(C)O[C@@H]4CO)OC(C)(C)O[C@@H]23)O1` (some centres not stated), the TGI in test [1], in [2], in test [3], in test [4], in [5] and in test [6] was > 100 µM each time. Moreover, the TGI in test [9], in test [7] and in test [10] was > 100 µM each time.

With `COc1ccc(N2C(=O)C(=O)C3(CCCCC3)C2=O)c(OC)c1OC`, the TGI in test [1], in test [2], in [3], in test [5], in test [6] and in test [9] was > 100 µM each time. For the same compound, the TGI in test [7] and in [10] was > 100 µM throughout.

Turning to `CC(C)(CO)NC(=O)c1cccs1`, the TGI in test [2], in test [3], in test [4], in test [5], in test [6] and in test [9] was > 100 µM throughout. The TGI in [7] was > 100 µM.

Regarding `COc1ccc(N2C(=O)C3C=CC(n4[nH]c(=O)n(Cc5ccccc5)c4=O)CC3C2=O)cc1` (configuration not stated), the TGI in test [1], in test [2], in test [3], in test [4], in test [5] and in [6] was > 100 µM each time. In addition, the TGI in test [7] and in [8] was > 100 µM throughout.

Take `COc1ccc(/C=C(\C2=NC(=O)CS2)c2nc3ccccc3[nH]2)cc1`: the TGI in [1] was 71.6 µM; in test [2], > 100 µM; in test [3], > 100 µM; in test [4], > 100 µM; in [5] it was > 100 µM; in test [6], > 100 µM. Also, the TGI in test [7] and in test [8] was > 100 µM throughout.

For the compound `O=C1C(=O)N(C23CC4CC(CC(C4)C2)C3)C(=S)N1c1ccccc1`, the TGI in [1], in test [2], in test [3], in test [4], in test [5] and in test [6] was > 100 µM throughout. The TGI in test [9], in test [7] and in test [8] was > 100 µM in each case.

In the case of `CP(=O)(O)C(N)c1ccccc1` (configuration not stated), the TGI in test [2], in test [3], in test [4], in test [5], in [6] and in test [9] was > 100 µM each time. In addition, the TGI in [7] and in test [10] was > 100 µM throughout.

For the compound `CCOC(=O)C1=C(O)c2ccc(OC)cc2C(=O)C1=O`, the TGI in [1], in test [2], in [3], in test [4], in test [5] and in test [6] was > 100 µM in each case. The TGI in [7] and in [8] was > 100 µM each time.

Turning to `COc1cccc2c1C(=O)c1c(O)c3c(c(O)c1C2=O)CC(O)(C(C)=O)CC3O` (configuration not stated), the TGI in test [1] came to 32.4 µM; in [2], 24.1 µM; in test [3], 31.9 µM; in [4] it was 7.42 µM; in [5], 19.5 µM; in [6], 6.98 µM. For the same compound, the figures for the TGI in [9], in test [7] and in test [8] were 22.4 µM, 29.4 µM and 17.2 µM, respectively.

`O=P(Nc1cccc(Cl)c1)(Oc1ccccc1)N(CCCl)CCCl` (configuration not stated): the TGI was 30.4 µM in [1]; 28.8 µM in test [2]; 31.4 µM in test [3]; 28.1 µM in [5]; 25.3 µM in test [6]; 29.1 µM in [7]. Also, in test [8], the TGI was determined as 27.6 µM.

For the compound `O=C1C(Cl)C(c2ccc([N+](=O)[O-])cc2)N1n1cnc2ccccc2c1=O` (configuration not stated), the TGI in test [1] is 39 µM; in test [2], > 100 µM; in test [3], 97.3 µM; in [4], > 100 µM; in [5], 68.9 µM; in [6] it was > 100 µM. The TGI in test [7] is > 100 µM.

For the compound `COc1ccc(OC)c(-c2cc(=O)c3cc4c(cc3[nH]2)OCO4)c1`, the TGI was > 38.1 µM in test [1]; > 100 µM in [2]; > 100 µM in [3]; > 37.2 µM in [4]; > 27.6 µM in test [5]; 28 µM in test [6]. The TGI in [7] is > 87.5 µM.

In the case of `Nc1ccn(CCCC(c2ccccc2)P(=O)(O)O)c(=O)n1` (configuration not stated), the TGI in test [1], in test [2], in test [3], in test [4], in test [5] and in [6] was > 100 µM in each case. Besides, the TGI in test [7] and in test [8] was > 100 µM each time.
